Values of other authors, collected in paper PMC8801796 (Reproductive Toxicology (Elmsford, N.y.), 2022).
Like-named read-outs stand apart in the source and are kept apart here.

Columns and labels:
[1] = tested on: monkeys, mice, rats, and rabbits; conditions: cited from earlier work
rabbits = conditions: cited from earlier work
rats [2] = conditions: rat PPND, maternal dosing GD 6 to postpartum day 20; cited from earlier work
rats [3] = conditions: cited from earlier work
[4] = tested on: Big Blue® (cII Locus) transgenic rodent; conditions: cited from earlier work
[5] = tested on: hypoxanthine phosphoribosyltransferase (HPRT) gene; conditions: mammalian cell; cited from earlier work
[6] = tested on: bacterial reverse mutation; conditions: in vitro; cited from earlier work
[7] = tested on: rats, rabbits, and guinea pigs; conditions: cited from earlier work

NC(=O)c1nc(F)c[nH]c1=O [FAV, favipiravir]
Teratogenicity [1]: teratogenesis has been reported

CC(C)c1nc(CN(C)C(=O)N[C@H](C(=O)N[C@@H](Cc2ccccc2)C[C@H](O)[C@H](Cc2ccccc2)NC(=O)OCc2cncs2)C(C)C)cs1 [ritonavir]
Fetal malformations (rabbits; rabbit EFD, doses of 25, 50, and 110 mg/kg/day): no evidence of fetal malformations
Cryptorchidism in postnatal developing rats (rats [2]): no reports of cryptorchidism
Cryptorchidism in rat EFD study (rats [3]; mid (35 mg/kg/day) and high (75 mg/kg/day) doses): cryptorchidism was reported
Fetal malformations (rats [3]; rat EFD, doses of 15, 35, and 75 mg/kg): no evidence of fetal malformations
Developmental toxicity findings in EFD studies (rats [3]; rats and/or rabbits, only at the highest dose evaluated in each species, maternally toxic doses): higher resorptions, lower fetal body weight, ossification delays, and increased skeletal variations

CC(C)C(=O)OC[C@H]1O[C@@H](n2ccc(NO)nc2=O)[C@H](O)[C@@H]1O [molnupiravir]
Developmental toxicity (rabbits; rabbits, 400 mg/kg/day): no developmental toxicity
Developmental toxicity (rabbits; rabbits, 750 mg/kg/day, in the presence of slight maternal toxicity): lower fetal body weights
Big Blue transgenic rodent mutagenesis assay result [4]: negative
HPRT gene mutation assay result [5]: positive
Developmental toxicity (rats [3]; rats, 250 mg/kg/day): no developmental toxicity
Developmental toxicity (rats [3]; rats, 500 mg/kg/day, in the presence of decreased maternal body weight gain): lower fetal body weights and delayed ossification
Developmental toxicity (rats [3]; rats, 1000 mg/kg/day (highest dose)): severe manifestations of developmental toxicity (malformations and embryo-fetal lethality)
Ames assay result [6]: positive

CCC(CC)COC(=O)[C@H](C)N[P@](=O)(OC[C@H]1O[C@@](C#N)(c2ccc3c(N)ncnn23)[C@H](O)[C@@H]1O)Oc1ccccc1 [remdesivir]
Effects on embryo-fetal development (rabbits; rabbits, up the highest dose tested, 20 mg/kg/day): no adverse effects on embryo-fetal development
Effects on embryo-fetal development (rats [3]; rats, up the highest dose tested, 20 mg/kg/day): no adverse effects on embryo-fetal development

NC(=O)c1ncn([C@@H]2O[C@H](CO)[C@@H](O)[C@H]2O)n1 [RBV, ribavirin]
Teratogenicity [7]: embryocidal and/or teratogenic
